Test results from paper doi:10.1101/2024.06.05.597555v1 (biorxiv, 2024).
Where two headings read alike, the source gives them in different places.

Tests used:
DENV-2 = test: microbe, parasite or virus in culture; details: Dengue virus, DENV2, Vero, 48 h, read-out: % inhibition
[1] = biological target: T1, NS2B(H)-NS3pro (DENV-2 NS2B-NS3 protease) (Dengue virus 2 Thailand/NGS-C/1944, UniProt P14340); test: fluorometric protease assay, AMC substrate; assay type: biochemical; details: pH 7.5, HEPES, CHAPS; substrate Bz-nKRR-AMC
T1 sequence (P14340 1394-1433 limits assumed): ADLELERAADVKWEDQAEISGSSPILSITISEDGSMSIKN
T1 sequence (P14340 1476-1660 limits assumed): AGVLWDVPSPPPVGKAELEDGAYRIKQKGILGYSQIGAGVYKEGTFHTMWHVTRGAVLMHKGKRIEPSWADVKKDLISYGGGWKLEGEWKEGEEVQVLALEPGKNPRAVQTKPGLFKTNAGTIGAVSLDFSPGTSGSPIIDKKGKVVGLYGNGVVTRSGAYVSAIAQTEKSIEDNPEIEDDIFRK

[2] = biological target: T2, DENV2proHeLa NS2B-NS3 protease (Dengue virus 2 Thailand/16681/84, UniProt P29990); test: cell-based; parameters: species or system DENV2proHeLa (HeLa); details: HeLa, read-out: % inhibition
[3] = biological target: T1, NS2B(H)-NS3pro (DENV-2 NS2B-NS3 protease); details: read-out: IC50 (C7.5-HEPES AMC); AMC substrate, HEPES pH 7.5, CHAPS; inhibitor
in vitro [4] = test: in vitro; parameters: species or system DENV2proHeLa (HeLa); details: human, denv2prohela cells
[5] = biological target: T2, DENV2proHeLa NS2B-NS3 protease; test: cell-based; parameters: species or system DENV2proHeLa (HeLa)
[6] = biological target: T1, NS2B(H)-NS3pro (DENV-2 NS2B-NS3 protease); test: biochemical; details: read-out: % inhibition
[7] = biological target: T2, DENV2proHeLa NS2B-NS3 protease; test: cell-based
[8] = biological target: T2, DENV2proHeLa NS2B-NS3 protease; test: cell-based; parameters: species or system DENV2proHeLa (HeLa); details: HeLa, read-out: % inhibition; remark: listed apart in the source
in vitro [9] = test: in vitro; parameters: species or system DENV2proHeLa (HeLa); details: human, denv2prohela cells; remark: listed apart in the source
[10] = biological target: T2, DENV2proHeLa NS2B-NS3 protease; test: cell-based; parameters: species or system DENV2proHeLa (HeLa); details: HeLa, read-out: % inhibition; remark: listed apart in the source
[11] = biological target: T2, DENV2proHeLa NS2B-NS3 protease; test: cell-based; parameters: species or system DENV2proHeLa (HeLa); remark: listed apart in the source
in vitro [12] = test: in vitro; parameters: species or system DENV2proHeLa (HeLa); details: human, denv2prohela cells; remark: listed apart in the source
[13] = biological target: T1, NS2B(H)-NS3pro (DENV-2 NS2B-NS3 protease); test: biochemical; details: read-out: % inhibition; remark: listed apart in the source
[14] = biological target: T1, NS2B(H)-NS3pro (DENV-2 NS2B-NS3 protease); details: read-out: IC50 (C7.5-HEPES AMC); AMC substrate, HEPES pH 7.5, CHAPS; inhibitor; remark: listed apart in the source
[15] = biological target: T2, DENV2proHeLa NS2B-NS3 protease; test: cell-based; parameters: species or system DENV2proHeLa (HeLa); details: HeLa, read-out: % inhibition; remark: listed apart in the source
in vitro [16] = test: in vitro; parameters: species or system DENV2proHeLa (HeLa); details: human, denv2prohela cells; remark: listed apart in the source
[17] = read-out: DENV2proHeLa EC50, inhibitor

T2 sequence (P29990 1476-2093 limits assumed): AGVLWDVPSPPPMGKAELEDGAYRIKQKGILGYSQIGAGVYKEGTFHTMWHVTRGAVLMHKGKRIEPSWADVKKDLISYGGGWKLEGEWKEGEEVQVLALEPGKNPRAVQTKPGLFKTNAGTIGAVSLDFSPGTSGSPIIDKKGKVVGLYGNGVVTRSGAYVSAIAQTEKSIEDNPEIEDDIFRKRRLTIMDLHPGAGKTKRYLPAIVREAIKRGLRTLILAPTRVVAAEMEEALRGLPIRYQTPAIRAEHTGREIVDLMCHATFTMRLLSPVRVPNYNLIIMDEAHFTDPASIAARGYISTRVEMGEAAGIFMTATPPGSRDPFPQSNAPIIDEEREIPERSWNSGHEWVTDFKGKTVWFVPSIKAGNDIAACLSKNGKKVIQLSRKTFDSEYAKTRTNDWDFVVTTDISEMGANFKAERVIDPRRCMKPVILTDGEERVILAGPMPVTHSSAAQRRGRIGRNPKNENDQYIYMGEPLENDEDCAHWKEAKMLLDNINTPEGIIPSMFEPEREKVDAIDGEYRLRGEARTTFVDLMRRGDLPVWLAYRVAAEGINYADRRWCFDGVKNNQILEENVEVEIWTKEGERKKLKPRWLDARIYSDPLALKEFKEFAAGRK
T2 sequence (P29990 1346-1475 partner limits assumed): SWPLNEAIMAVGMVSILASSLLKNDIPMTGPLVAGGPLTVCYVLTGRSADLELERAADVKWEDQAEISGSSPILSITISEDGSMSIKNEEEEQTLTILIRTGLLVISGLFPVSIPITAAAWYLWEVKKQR

COc1ccc(/C=C/C(=O)C(=O)NC(C)(C)C)cc1OC [GG-80-1]
inhibition at 25 µM (DENV-2): 97%

CC(C)(C)NC(=O)C(=O)/C=C/c1c[nH]c2ccccc12 [GG-92]
inhibition at 25 µM (DENV-2): 40%

NC(=O)c1cccc(NC(=O)[C@@H](NC(=O)c2ccc(Oc3ccccc3)cc2)c2ccc(OCc3ccccc3)cc2)c1 [compound 1]
IC50 [1]: 13 µM

CC(C)Cc1ccc(C(C)C(=O)N[C@H](C(=O)Nc2cccc(C(N)=O)c2)c2ccc(OCc3ccccc3)cc2)cc1 (stereo partly shown) [compound 3, 3]
inhibition at 12.5 µM [2]: 84% | IC50 [3]: 8 µM | CC50 (in vitro [4]): > 25 µM | EC50 [5]: 3.8 µM

CC(C(=O)N[C@H](C(=O)Nc1cccc(C(N)=O)c1)c1ccc(OCc2ccccc2)cc1)c1cccc(Oc2ccccc2)c1 (stereo partly shown) [compound 4, 4]
inhibition at 50 µM [6]: 100% | inhibition at 12.5 µM [2]: 86% | IC50 [3]: 9.7 µM | CC50 (in vitro [4]): > 50 µM | EC50 [5, 17]: 4 µM | inhibition at 25 µM (DENV-2): 85%

NC(=O)c1cccc(NC(=O)[C@@H](NC(=O)c2ccc(-c3ccccc3)o2)c2ccc(OCc3ccccc3)cc2)c1 [compound 5, 5]
inhibition at 50 µM [6]: 100% | inhibition at 12.5 µM [2]: 85% | IC50 [3]: 9.3 µM | CC50 (in vitro [4]): > 100 µM | EC50 [5, 17]: 5.9 µM | inhibition at 25 µM (DENV-2): 96%

CC(C(=O)NCC1(CC(=O)N[C@H](C(=O)Nc2cccc(C(N)=O)c2)c2ccc(OCc3ccccc3)cc2)CCCCC1)c1ccc2c(c1)[nH]c1ccc(Cl)cc12 (stereo partly shown) [compound 6, 6]
inhibition at 50 µM [6]: 99% | inhibition at 12.5 µM [2]: 60% | IC50 [3]: 8 µM | CC50 (in vitro [4]): > 50 µM | EC50 [5, 17]: 2.9 µM

NC(=O)c1cccc(NC(=O)[C@@H](NC(=O)c2ccc(Nc3ccccc3)cc2)c2ccc(OCc3ccccc3)cc2)c1 [compound 7]
inhibition at 50 µM [6]: 99% | inhibition at 12.5 µM [2]: 93% | CC50 (in vitro [4]): ≥ 100 µM | inhibition at 25 µM (DENV-2): < 10% | EC50 [7]: 0.7 µM

COc1cc(C(=O)N[C@H](C(=O)Nc2cccc(C(N)=O)c2)c2ccc(OCc3ccccc3)cc2)ccc1Oc1ccccc1 [compound 8, 8]
inhibition at 50 µM [6]: 99% | inhibition at 12.5 µM [2]: 86% | IC50 [3]: 12 µM | CC50 (in vitro [4]): > 100 µM | EC50 [5]: 1.4 µM

NC(=O)c1cccc(NC(=O)[C@@H](NC(=O)Cc2ccccc2Nc2c(Cl)cccc2Cl)c2ccc(OCc3ccccc3)cc2)c1 [compound 9, 9]
inhibition at 50 µM [6]: 99% | inhibition at 12.5 µM [2]: 60% | IC50 [3]: 10 µM | CC50 (in vitro [4]): > 50 µM | EC50 [5]: 8.6 µM

COc1ccc2cc([C@H](C)C(=O)N[C@H](C(=O)Nc3cccc(C(N)=O)c3)c3ccc(OCc4ccccc4)cc3)ccc2c1 [compound 10, 10]
inhibition at 12.5 µM [2]: 71% | IC50 [3]: 12 µM | CC50 (in vitro [4]): > 100 µM | EC50 [5, 17]: 3.7 µM

NC(=O)c1cccc(NC(=O)[C@@H](NC(=O)Cc2ccc(Oc3ccccc3)cc2)c2ccc(OCc3ccccc3)cc2)c1 [compound 11, 11]
inhibition at 50 µM [6]: 99% | inhibition at 12.5 µM [2]: 78% | IC50 [3]: 14 µM | CC50 (in vitro [4]): > 50 µM | EC50 [5]: 6.9 µM

CC(CC(=O)N[C@H](C(=O)Nc1cccc(C(N)=O)c1)c1ccc(OCc2ccccc2)cc1)CC(C)(C)C (stereo partly shown) [compound 16]
IC50 [1]: 11 µM | inhibition at 12.5 µM [8]: 61% | CC50 (in vitro [9]): ≥ 100 µM | inhibition at 25 µM (DENV-2): 98% | EC50 [7]: 11 µM

NC(=O)c1cccc(NC(=O)[C@@H](NC(=O)c2cc(O)n(-c3ccccc3)n2)c2ccc(OCc3ccccc3)cc2)c1 [compound 27]
IC50 [1]: 30 µM | inhibition at 12.5 µM [8]: 24% | CC50 (in vitro [9]): > 50 µM

CC(C(=O)N[C@H](C(=O)Nc1cccc(C(N)=O)c1)c1ccc(OCc2ccccc2)cc1)c1ccccc1 (stereo partly shown) [compound 28, 28]
inhibition at 12.5 µM [10]: 77% | EC50 [11]: 8 µM | CC50 (in vitro [12]): > 50 µM | inhibition at 50 µM [13]: 83% | IC50 [14]: 17 µM

Cc1onc(-c2ccc(F)cc2)c1C(=O)N[C@H](C(=O)Nc1cccc(C(N)=O)c1)c1ccc(OCc2ccccc2)cc1 [compound 29, 29]
inhibition at 12.5 µM [10]: 64% | CC50 (in vitro [12]): > 50 µM | inhibition at 50 µM [13]: 82% | IC50 [14]: 14 µM

NC(=O)c1cccc(NC(=O)[C@@H](NC(=O)c2ccc(Oc3ccccc3)nc2)c2ccc(OCc3ccccc3)cc2)c1 [compound 33]
inhibition at 12.5 µM [10]: 55% | IC50 [1]: 34 µM | CC50 (in vitro [12]): > 100 µM | inhibition at 50 µM [13]: 70% | EC50 [7]: 8.8 µM

CC(C)CCC(=O)N1CCC(C(=O)N[C@H](C(=O)Nc2cccc(C(N)=O)c2)c2ccc(OCc3ccccc3)cc2)CC1 [compound 34, 34]
inhibition at 12.5 µM [10]: 53% | EC50 [11]: 11 µM | CC50 (in vitro [12]): > 100 µM | inhibition at 50 µM [13]: 69%

Cc1nc(-c2ccncc2)sc1C(=O)N[C@H](C(=O)Nc1cccc(C(N)=O)c1)c1ccc(OCc2ccccc2)cc1 [compound 35, 35]
inhibition at 12.5 µM [10]: 78% | CC50 (in vitro [12]): > 50 µM | inhibition at 50 µM [13]: 69%

NC(=O)c1cccc(NC(=O)[C@@H](NC(=O)OCc2ccccc2)c2ccc(OCc3ccccc3)cc2)c1 [compound 36, 36]
inhibition at 12.5 µM [10]: 60% | EC50 [11]: 5 µM | CC50 (in vitro [12]): ≥ 50 µM | IC50 [14]: 28 µM

NC(=O)c1cccc(NC(=O)C(NC(=O)c2ccccc2)c2ccc(OCc3ccccc3)cc2)c1 (stereo not shown) [compound 42, 42]
inhibition at 12.5 µM [10]: 80% | CC50 (in vitro [12]): > 100 µM | inhibition at 50 µM [13]: 56%

NC(=O)c1cccc(NC(=O)C(CC2CCCCC2)NC(=O)c2ccc(Oc3ccccc3)cc2)c1 (stereo not shown) [compound 64, 64]
inhibition at 12.5 µM [15]: 82% | CC50 (in vitro [16]): 40 µM

NC(=O)c1cccc(NC(=O)C(Cc2ccc3ccccc3c2)NC(=O)c2ccc(Oc3ccccc3)cc2)c1 (stereo not shown) [compound 65]
IC50 [1]: 5.9 µM | inhibition at 12.5 µM [15]: 55% | CC50 (in vitro [16]): > 50 µM | EC50 [7]: 7.4 µM

NC(=O)c1cccc(NC(=O)C(CCc2ccccc2)NC(=O)c2ccc(Oc3ccccc3)cc2)c1 (stereo not shown) [compound 66, 66]
inhibition at 12.5 µM [15]: 67% | CC50 (in vitro [16]): > 50 µM

NC(=O)c1cccc(NC(=O)C(Cc2ccc(NCc3ccccc3)cc2)NC(=O)c2ccc(Oc3ccccc3)cc2)c1 (stereo not shown) [compound 68]
IC50 [1]: 15 µM | CC50 (in vitro [16]): > 50 µM

NC(=O)c1cccc(NC(=O)C(Cc2ccccc2)NC(=O)c2ccc(Oc3ccccc3)cc2)c1 (stereo not shown) [compound 70, 70]
inhibition at 12.5 µM [15]: 55% | CC50 (in vitro [16]): > 50 µM

NC(=O)c1cccc(NC(=O)C(CCC(=O)Nc2ccccc2)NC(=O)c2ccc(Oc3ccccc3)cc2)c1 (stereo not shown) [compound 71, 71]
inhibition at 12.5 µM [15]: 45% | CC50 (in vitro [16]): > 50 µM

CC(C)CC(NC(=O)c1ccc(Oc2ccccc2)cc1)C(=O)Nc1cccc(C(N)=O)c1 (stereo not shown) [compound 73, 73]
inhibition at 12.5 µM [15]: 36% | CC50 (in vitro [16]): ≥ 50 µM
